Data: ChEMBL document CHEMBL1123729, “Synthesis and biological activity of partially modified retro-inverso pseudopeptide derivatives of the C-terminal tetrapeptide of gastrin” (J Med Chem, 1987)
Active and inactive are the calls of the source. The rule behind the calls is not given here. Peptide text beside a SMILES is read from it. * marks the point of attachment. Boc = CC(C)(C)OC(=O)*

Legend:
Rattus norvegicus [1] = experiment: Effective dose required to inhibit gastrin-induced acid secretion in the in situ perfused rat stomach (anesthetized rat); assay type: functional
Rattus norvegicus [2] = experiment: Agonistic activity against gastrin induced acid secretion in the anesthetized rats; No agonist activity at doses as high as 3 mg/kg; assay type: functional, organism-based; set-up: dose 3 mg/kg
Rattus norvegicus [3] = experiment: Agonistic activity against gastrin induced acid secretion in the anesthetized rats at a dose of 3 mg/kg;*=1/4 of the agonistic activity; assay type: functional, organism-based; set-up: dose 3 mg/kg; settings: filed as partial agonist
Rattus norvegicus [4] = experiment: Agonistic activity against gastrin induced acid secretion in the anesthetized rats at a dose of 3 mg/kg; **** indicate full activity of tetragastrin; assay type: functional, organism-based; set-up: dose 3 mg/kg; settings: filed as agonist

## CCCCOC(=O)CCNC(=O)[C@H](Cc1c[nH]c2ccccc12)NC(=O)[C@@H](CCCC)NC(=O)[C@H](CC(=O)O)NC(=O)CCc1ccccc1
Rattus norvegicus [1]
  ED50: 10.4 µmol/kg

## CCCCOC(=O)CCNC(=O)[C@H](Cc1c[nH]c2ccccc12)NC(=O)[C@@H](CCCC)NC(=O)[C@H](CC(=O)O)NC(=O)NCc1ccccc1
Rattus norvegicus [2]
  Agonist activity: inactive

## CCCN(CCC)C(=O)C(CCC(=O)O)NC(=O)c1ccccc1 (configuration not stated) [PROGLUMIDE]
Rattus norvegicus [2]
  Agonist activity: inactive
Rattus norvegicus [1]
  ED50: 350 µmol/kg

## CCCC[C@@H](NC(=O)[C@H](CC(=O)O)NC(=O)NCc1ccccc1)NC(=O)[C@@H](Cc1c[nH]c2ccccc12)NC(=O)OC(C)(C)C
Rattus norvegicus [3]
  Agonist activity: Partial agonist
Rattus norvegicus [1]
  ED50: 1.1 µmol/kg

## CC(C)C[C@H](NC(=O)[C@H](Cc1c[nH]c2ccccc12)NC(=O)OC(C)(C)C)C(=O)N[C@H](CC(=O)O)NC(=O)NCc1ccccc1
Rattus norvegicus [2]
  Agonist activity: inactive
Rattus norvegicus [1]
  ED50: 0.9 µmol/kg

## CC(C)C[C@H](NC(=O)[C@H](Cc1c[nH]c2ccccc12)NC(=O)OC(C)(C)C)C(=O)N[C@@H](CC(=O)O)C(=O)N[C@@H](Cc1ccccc1)C(N)=O (Boc-WLDF-NH2)
Rattus norvegicus [4]
  Agonist activity: Agonist

## CC(C)C[C@H](NC(=O)[C@@H](Cc1c[nH]c2ccccc12)NC(=O)OC(C)(C)C)C(=O)N[C@H](CC(=O)O)NC(=O)C(Cc1ccccc1)C(N)=O (some centres not stated)
Rattus norvegicus [3]
  Agonist activity: Partial agonist
Rattus norvegicus [1]
  ED50: 0.3 µmol/kg

## CC(C)C[C@H](NC(=O)[C@@H](Cc1c[nH]c2ccccc12)NC(=O)OC(C)(C)C)C(=O)N[C@H](CC(=O)O)NC(=O)CCc1ccccc1
Rattus norvegicus [2]
  Agonist activity: inactive
Rattus norvegicus [1]
  ED50: 0.15 µmol/kg

## CCCC[C@@H](NC(=O)[C@H](CC(=O)O)NC(=O)CCc1ccccc1)NC(=O)[C@@H](Cc1c[nH]c2ccccc12)NC(=O)OC(C)(C)C
Rattus norvegicus [3]
  Agonist activity: Partial agonist
Rattus norvegicus [1]
  ED50: 2.5 µmol/kg

## CC(C)C[C@@H](NC(=O)[C@H](CC(=O)O)NC(=O)C(Cc1ccccc1)C(N)=O)NC(=O)[C@@H](Cc1c[nH]c2ccccc12)NC(=O)OC(C)(C)C (some centres not stated)
Rattus norvegicus [3]
  Agonist activity: Partial agonist
Rattus norvegicus [1]
  ED50: 0.15 µmol/kg
